We go through two compounds from ChEMBL document CHEMBL1201862, “PubChem BioAssay data set” (2004).

Active and inactive are the calls of the source.

As a reminder, the EC50 is the midpoint of the concentration-response curve. The AC50 is the concentration giving half of the maximal activity seen.

Common to all, as to format: functional
One assay concerns the target Beta-galactosidase (Escherichia coli, UniProt Q8VNN2). Put plainly: PubChem AID 485352.
Assay [1] can be described thus: microbe, parasite or virus in culture. Conditions: Mycobacterium tuberculosis.
The target in assay [2] is T1, Type-1 angiotensin II receptor (Homo sapiens, UniProt P30556).
T1 sequence (P30556 whole entry): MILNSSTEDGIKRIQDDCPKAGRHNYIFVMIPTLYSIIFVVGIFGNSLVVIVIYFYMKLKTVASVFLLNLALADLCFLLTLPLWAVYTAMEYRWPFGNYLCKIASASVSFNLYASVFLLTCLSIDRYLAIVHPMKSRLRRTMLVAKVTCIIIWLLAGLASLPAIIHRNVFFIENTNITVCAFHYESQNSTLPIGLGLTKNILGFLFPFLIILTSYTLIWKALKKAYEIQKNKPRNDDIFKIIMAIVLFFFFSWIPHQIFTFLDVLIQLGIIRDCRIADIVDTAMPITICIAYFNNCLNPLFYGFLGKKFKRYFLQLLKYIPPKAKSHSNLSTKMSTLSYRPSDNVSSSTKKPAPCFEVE
Put plainly: antagonism of angiotensin II type 1 receptor – cell-based, uHTS hits, selectivity assay for APJ receptor antagonist project, dose response (AID 463214).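 Note: antagonist potency against angiotensin II stimulated AT1 response.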

A short description of assay [3]: Luminescence Cell-Based Dose Retest to Confirm Inhibitors of Cancer Stem Cells. [Related pubchem assays (depositor defined):AID2717, AID2721]. Conditions: Homo sapiens.
Assay [4] has as its target T2, Polyadenylate-binding protein 1 (Homo sapiens, UniProt P11940). The assay can be described thus: MLLE binding blockers, Cy5 peptide tracer – biochemical, fluorescence polarization, Cy5-PAM2 peptide, secondary, miRNA deadenylation inhibitor project, dose response (AID 602260). To be noted: read-out: IC50_Mean.
In assay [5] the target is T2, Polyadenylate-binding protein 1. Put plainly: MLLE domain peptide-binding blockers, IC50 – biochemical, fluorescence polarization, FITC-PAM2 peptide, dose response (AID 602259). Conditions: read-out: IC50_Mean. In general terms: Polarisation of emitted light reports the rotation of a fluorescent probe.
Assay [6] deals with SWI/SNF-related matrix-associated actin-dependent regulator of chromatin subfamily A member 2 (Homo sapiens, UniProt P51531). The assay can be described thus: Luminescence-based cell-based high throughput dose response assay to identify activators of the function of SWI/SNF related, matrix associated, actin dependent regulator of chromatin, subfamily a, member 2 (SMARCA2, BRM).

Assay [7] can be described thus: Counterscreen for activators of the function of SWI/SNF related, matrix associated, actin dependent regulator of chromatin, subfamily a, member 2 (SMARCA2, BRM): Luminescence-based cell-based high throughput dose response assay to identify non-selective compounds using the VP16 reporter assay. A general note: The purpose of a counterscreen is to sort out artefacts and off-target activity.
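Throughout, for AC50: cells exposed to compound for roughly 70 hours or longer before luminescence read.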

Chain of Beta-galactosidase (Q8VNN2 whole entry): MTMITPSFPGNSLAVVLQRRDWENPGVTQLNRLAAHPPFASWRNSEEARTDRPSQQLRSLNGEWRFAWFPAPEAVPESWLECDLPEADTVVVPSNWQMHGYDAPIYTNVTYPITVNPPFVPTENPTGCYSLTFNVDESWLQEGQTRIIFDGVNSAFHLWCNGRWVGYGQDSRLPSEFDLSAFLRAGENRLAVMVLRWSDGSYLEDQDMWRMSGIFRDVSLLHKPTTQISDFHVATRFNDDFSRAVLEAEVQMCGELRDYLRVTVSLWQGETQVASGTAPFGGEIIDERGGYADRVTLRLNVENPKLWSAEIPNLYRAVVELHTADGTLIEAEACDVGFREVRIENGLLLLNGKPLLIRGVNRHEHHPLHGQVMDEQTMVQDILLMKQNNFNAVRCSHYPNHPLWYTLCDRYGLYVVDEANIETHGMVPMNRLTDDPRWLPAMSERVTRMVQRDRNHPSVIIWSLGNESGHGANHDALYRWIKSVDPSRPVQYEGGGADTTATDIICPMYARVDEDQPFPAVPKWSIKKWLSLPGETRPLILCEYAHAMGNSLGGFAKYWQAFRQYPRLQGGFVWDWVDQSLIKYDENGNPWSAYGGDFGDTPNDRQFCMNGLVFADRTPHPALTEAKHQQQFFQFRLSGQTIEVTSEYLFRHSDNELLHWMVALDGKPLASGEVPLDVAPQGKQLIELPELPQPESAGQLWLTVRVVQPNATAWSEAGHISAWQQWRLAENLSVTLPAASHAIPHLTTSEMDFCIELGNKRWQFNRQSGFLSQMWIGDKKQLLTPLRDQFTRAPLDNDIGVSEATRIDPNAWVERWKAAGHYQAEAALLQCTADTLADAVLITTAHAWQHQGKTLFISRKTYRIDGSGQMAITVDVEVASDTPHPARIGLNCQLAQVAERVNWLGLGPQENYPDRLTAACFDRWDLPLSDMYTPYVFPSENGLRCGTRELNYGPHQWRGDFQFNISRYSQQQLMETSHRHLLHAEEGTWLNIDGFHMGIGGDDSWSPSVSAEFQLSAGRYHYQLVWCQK
T2 sequence (P11940 whole entry, the tested form may be a part): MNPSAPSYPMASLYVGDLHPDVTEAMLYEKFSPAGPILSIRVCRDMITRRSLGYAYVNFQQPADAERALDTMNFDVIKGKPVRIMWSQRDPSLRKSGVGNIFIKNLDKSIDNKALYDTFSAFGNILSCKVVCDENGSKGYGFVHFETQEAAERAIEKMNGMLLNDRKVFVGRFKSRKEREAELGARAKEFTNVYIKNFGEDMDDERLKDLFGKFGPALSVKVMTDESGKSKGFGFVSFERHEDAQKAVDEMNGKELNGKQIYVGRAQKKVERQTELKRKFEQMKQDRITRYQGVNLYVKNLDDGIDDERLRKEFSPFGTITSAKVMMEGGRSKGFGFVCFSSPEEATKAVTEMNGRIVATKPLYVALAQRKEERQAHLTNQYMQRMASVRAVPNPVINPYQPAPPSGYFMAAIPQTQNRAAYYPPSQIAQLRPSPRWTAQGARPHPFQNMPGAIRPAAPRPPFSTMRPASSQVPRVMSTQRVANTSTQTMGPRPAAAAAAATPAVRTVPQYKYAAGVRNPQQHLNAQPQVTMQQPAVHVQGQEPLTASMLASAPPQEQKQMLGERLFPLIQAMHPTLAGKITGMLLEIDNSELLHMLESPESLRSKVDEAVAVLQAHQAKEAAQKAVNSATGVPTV
Chain of SWI/SNF-related matrix-associated actin-dependent regulator of chromatin subfamily A member 2 (P51531 whole entry): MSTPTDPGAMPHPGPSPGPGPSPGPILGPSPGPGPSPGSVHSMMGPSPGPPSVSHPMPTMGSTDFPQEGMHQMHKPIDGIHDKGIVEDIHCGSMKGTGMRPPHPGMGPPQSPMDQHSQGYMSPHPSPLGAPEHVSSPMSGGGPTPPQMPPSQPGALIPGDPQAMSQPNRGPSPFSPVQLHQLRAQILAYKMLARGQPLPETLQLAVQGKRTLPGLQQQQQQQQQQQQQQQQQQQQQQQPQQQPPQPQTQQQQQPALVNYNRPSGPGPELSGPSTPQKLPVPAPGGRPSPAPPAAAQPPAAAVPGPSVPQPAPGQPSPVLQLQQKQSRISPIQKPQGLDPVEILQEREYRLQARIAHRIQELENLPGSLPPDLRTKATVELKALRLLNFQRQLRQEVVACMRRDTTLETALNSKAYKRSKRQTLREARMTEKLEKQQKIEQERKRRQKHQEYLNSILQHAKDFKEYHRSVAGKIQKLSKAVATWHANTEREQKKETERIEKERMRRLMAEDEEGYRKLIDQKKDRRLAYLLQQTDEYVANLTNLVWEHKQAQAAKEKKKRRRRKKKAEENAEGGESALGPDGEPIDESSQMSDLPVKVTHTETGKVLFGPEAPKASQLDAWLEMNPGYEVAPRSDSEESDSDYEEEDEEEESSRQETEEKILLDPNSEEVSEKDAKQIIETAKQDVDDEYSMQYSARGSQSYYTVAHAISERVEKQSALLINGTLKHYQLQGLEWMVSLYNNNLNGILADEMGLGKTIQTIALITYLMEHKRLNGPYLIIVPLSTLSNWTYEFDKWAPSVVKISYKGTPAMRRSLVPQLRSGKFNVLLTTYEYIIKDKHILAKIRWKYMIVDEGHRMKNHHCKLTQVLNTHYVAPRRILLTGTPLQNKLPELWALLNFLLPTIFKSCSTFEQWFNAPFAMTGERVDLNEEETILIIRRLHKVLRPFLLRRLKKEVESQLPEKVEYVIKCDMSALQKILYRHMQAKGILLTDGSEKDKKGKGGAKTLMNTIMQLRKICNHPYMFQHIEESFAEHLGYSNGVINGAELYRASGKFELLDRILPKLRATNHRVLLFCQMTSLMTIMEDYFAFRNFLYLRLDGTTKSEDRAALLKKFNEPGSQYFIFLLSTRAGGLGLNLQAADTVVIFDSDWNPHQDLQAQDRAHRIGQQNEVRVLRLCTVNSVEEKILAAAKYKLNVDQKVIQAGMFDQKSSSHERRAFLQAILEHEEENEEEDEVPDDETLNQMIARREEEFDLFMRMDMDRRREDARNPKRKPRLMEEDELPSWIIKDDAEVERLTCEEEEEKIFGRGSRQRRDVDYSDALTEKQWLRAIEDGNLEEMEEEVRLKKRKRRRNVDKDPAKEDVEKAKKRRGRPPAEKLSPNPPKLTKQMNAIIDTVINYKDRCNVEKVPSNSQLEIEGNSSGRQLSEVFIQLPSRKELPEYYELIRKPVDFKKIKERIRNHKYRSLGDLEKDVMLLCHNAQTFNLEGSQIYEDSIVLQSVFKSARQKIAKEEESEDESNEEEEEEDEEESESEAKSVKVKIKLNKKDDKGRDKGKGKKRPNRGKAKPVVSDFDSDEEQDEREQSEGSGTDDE

Take `Cc1csc(N=C(S)Nc2cccc(Cl)c2)n1`: the EC50 on Beta-galactosidase is > 40 µM (inactive). Besides, in assay [1], the CC50 was 33.1 µM (active). The IC50 was > 40 µM (not active) in assay [2], > 66 µM (inactive) in assay [4] and > 66 µM (inactive) in assay [5]. Also, in assay [3], the AC50 was 7.09 µM (active).

`O=C(CNc1cccc(Cl)c1)c1ccc(Br)cc1`: the EC50 on Beta-galactosidase was > 40 µM (inactive); in assay [6] it was > 91.2 µM (inactive); in assay [7] it was > 91.2 µM (inactive). Besides, the IC50 in assay [2] was 15 µM (active).
